In patent publication US8034939B2, “Isoindole derivatives, compositions containing same, preparation thereof and pharmaceutical uses thereof in particular as inhibitors of chaperone protein Hsp90 activities” (Aventis Pharma S.A.., priority 2005, dated 2011):

Molecular target: Hsp82 (Saccharomyces cerevisiae, UniProt P02829)
Assay: Hsp82 ATPase activity, PK/LDH coupled enzymatic assay (also malachite green method)
Assay type: biochemical
Settings: 1 μM Hsp82, 250 μM ATP, 37° C.
Protocol: The […] released during the hydrolysis of ATP by the ATPase activity of Hsp82 is quantified by the malachite green method. In the presence of this reagent, formation of the inorganic phosphate-molybdate-malachite green complex occurs, which complex absorbs at a wavelength of 620 nm. The products to be evaluated are incubated in a reaction volume of 30 μl, in the presence of 1 μM Hsp82 and of […] of substrate (ATP) in a buffer composed of 50 mM Hepes-NaOH (pH 7.5), 1 mM DTT, 5 mM MgCl2 and 50 mM KCl at 37° C. for 60 minutes. In parallel, a range of inorganic phosphate between 1 and 40 μM is prepared in the same buffer. […] After incubation at ambient temperature for 20 minutes, the absorbance of the various wells is measured using a microplate reader at 620 nm. The concentration of […] of each sample is then calculated from the standard curve. The ATPase activity of Hsp82 is expressed as concentration of inorganic phosphate produced in 60 minutes. The effect of the various products tested is expressed as percentage inhibition of the ATPase activity. […]
The products tested are incubated in a reaction volume of 100 μl of buffer composed of 100 mM Hepes-NaOH (pH 7.5), 5 mM MgCl2, 1 mM DTT, 150 mM KCl, 0.3 mM NADH, 2.5 mM PEP and 250 μM ATP. […] The enzymatic activity of Hsp82 is then measured, continuously, in a microplate reader, at 37° C., at the wavelength of 340 nm. […]

Hsp82, sequence (P02829 whole entry): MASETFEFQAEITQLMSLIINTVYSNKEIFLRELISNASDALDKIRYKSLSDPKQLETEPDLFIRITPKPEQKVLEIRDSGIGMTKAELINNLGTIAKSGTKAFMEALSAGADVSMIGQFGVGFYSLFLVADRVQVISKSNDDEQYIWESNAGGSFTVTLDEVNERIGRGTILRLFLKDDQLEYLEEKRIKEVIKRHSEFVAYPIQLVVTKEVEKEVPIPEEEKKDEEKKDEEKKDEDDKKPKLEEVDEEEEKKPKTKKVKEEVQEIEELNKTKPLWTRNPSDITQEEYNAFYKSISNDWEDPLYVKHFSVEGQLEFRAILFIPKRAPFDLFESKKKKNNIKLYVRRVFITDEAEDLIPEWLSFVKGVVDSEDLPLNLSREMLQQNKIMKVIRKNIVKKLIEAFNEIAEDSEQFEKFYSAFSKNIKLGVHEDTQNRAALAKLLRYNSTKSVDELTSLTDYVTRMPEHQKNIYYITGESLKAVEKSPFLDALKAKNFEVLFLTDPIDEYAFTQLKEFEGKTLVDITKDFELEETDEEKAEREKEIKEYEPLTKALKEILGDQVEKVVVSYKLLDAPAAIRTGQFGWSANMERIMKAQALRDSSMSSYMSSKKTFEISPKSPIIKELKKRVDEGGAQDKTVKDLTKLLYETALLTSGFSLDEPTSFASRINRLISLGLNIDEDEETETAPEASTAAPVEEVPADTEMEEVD

SMILES | IC50
O=C1c2ccccc2C2=C(c3nc4ccncc4[nH]3)CCCN12 [Example 1, 1-{3-H-imidazo[4,5-c]pyridin-2-yl}-3,4-dihydro-2H-pyrido[2,1-a]-isoindole-6-one] | 1 to 10 µM
O=C1c2ccccc2C2=C(c3nc4ccc(O)cc4[nH]3)CCCN12 [Example 2, 1-{1-H-6-hydroxybenzimidazol-2-yl}-3,4-dihydro-2H-pyrido[2,1-a]isoindole-6-one] | 10 to 100 µM
